Data: patent US20220267774A1, “METHODS AND COMPOSITIONS TO DIRECT BREAKDOWN OF INSULIN MRNA IN BENIGN FASHION” (CITY OF HOPE, priority 2019, published 2022)
Values belong to the molecule of their own block, whether it stands above or below them.

Assays:
[1] = tested on: cells transfected with INS-DRiP-GFP vectors; assay: DRiP-GFP expression from INS-DRiP-GFP vectors; type: cell-based; settings: both variants
Text: Method: Two vectors of INS-DRiP-GFP (one of the protective genotype and one of the susceptible genotype) that express insulin and DRiP linked to GFP were created (FIG. 28). The vectors were transfected into cells, and GFP expression was observed when translation is started at the DRiP start codon.

[2] = tested on: human beta cell line (1.1B4); assay: Insulin mRNA and DRiP protein expression in beta cell line under stress; type: cell-based; settings: 1.1B4 cells stressed with TG
Text: FIGS. 22A-B illustrates ex vivo cleavage of insulin mRNA in a cell line. FIG. 22A is a bar graph illustrating insulin mRNA expression change when beta cells are stressed with Thapsigargin (TG). FIG. 22B is a bar graph illustrating DRiP protein expression when beta cells are stressed with TG.
Ex vivo insulin mRNA expression and DRiP protein expression in beta cell line under stress. Ex vivo cleavage of insulin mRNA was examined in a 1.1B4 cell line. A human beta cell line (1.1B4) was stressed with Thapsigargin (chemical), with or without inhibition of IRE1, followed by analysis of the insulin mRNA expression and DRiP protein expression. […] But it is not enough to prevent an increase in DRiP expression. The protective SNP may have this effect ex vivo.

[3] = tested on: 293T cells transfected with INS-DRiP-GFP; assay: Effect of ER stress inducers on DRiP expression in INS-DRiP-GFP transfected cells; type: cell-based, human; settings: western blot and flow cytometry
Text: FIG. 8A is a western blot of 293T cell lysates (left to right) in nontransfected cells (NT), or cells transfected with INS-DRiP-GFP that were untreated (−), stimulated with thapsigargin (TG), or stimulated with tunicamycin (TM). The western blot in FIG. 8A is labeled using anti-GFP, anti-insulin, and anti-actin antibodies. FIG. 8B is a chart depicting densitometry analyses of the western blot in FIG. 8A analyzing the GFP (black bars) and insulin bands (gray bars) and shown as induction ratio±s.d. where the intensity of the nontreated cells was used as reference (right).
The effect of endoplasmic reticulum stress (ER stress) on translation initiation was also determined. Cells transfected with INS-DRiP-GFP were stimulated with the ER stress-inducers thapsigargin (TG) or tunicamycin (TM).

HLA-A2 = settings: cited from earlier work
HLA-DQ8cis [4] = target: HLA-DQ8cis (Homo sapiens, UniProt P01909+P01920, A209T/A45G/C70Q/D89A/E183D/E77G/F237L/G63E/H199R/I129T/K197E/L178F/L74F/L98V/Q57E/Q76R/S185I/S97I/T217I/T49S/V73L/Y58L); settings: cell-free; cited from earlier work
HLA-DQ2trans [5] = target: HLA-DQ2trans (Homo sapiens, UniProt P01909+P01920, A45G/A70V/C70Q/D89A/E106A/E183D/E77G/E98D/G63E/H199R/I129T/K197E/L107V/L178F/L74F/L98V/N214S/P84L/P87L/Q57E/Q76R/S185I/S97I/T103K/T109R/T172A/T49S/T60S/V73L/V78E/V99I/Y58L/Y62S/Y69I/Y79F); settings: cell-free; cited from earlier work
HLA-DQ8trans [6] = target: HLA-DQ8trans (Homo sapiens, UniProt P01909+P01920, A45G/D89A/E77G/H199R/N214S/Y58L); settings: cell-free; cited from earlier work
HLA-DQ2trans [7] = target: T1, HLA-DQ2trans (human, UniProt P01909 24-216, limits assumed); assay: cell-free HLA-DQ binding studies
T1 construct: Formed by the alpha-chain of HLA-DQ8 (DQA1*03:01) and the beta-chain of HLA-DQ2 (DQB1*02:01) (so in the source)
T1 MHC II alpha: not shown
T1 MHC II beta: not shown

HLA-DQ8trans [8] = target: T2, HLA-DQ8trans (human, UniProt P01909 24-216; P01920 33-230, limits assumed); assay: cell-free HLA-DQ binding studies
T2 construct: Formed by the alpha-chain of HLA-DQ2 (DQA1*05:01) and the beta-chain of HLA-DQ8 (DQB1*03:02) (so in the source)
T2 MHC II alpha: not shown
T2 MHC II beta: not shown

HLA-DQ2cis = HLA-DQ2cis (human, UniProt P01909 24-216, limits assumed); assay: cell-free HLA-DQ binding studies
HLA-DQ8cis [9] = target: T3, HLA-DQ8cis (human, UniProt P01909 24-216; P01920 33-230, limits assumed); assay: cell-free HLA-DQ binding studies
T3 MHC II alpha: not shown
T3 MHC II beta: not shown

Molecule: C/C=C(/C)C(=O)O[C@H]1C(C)=C2[C@H]([C@@H]1OC(=O)CCCCCCC)[C@@](C)(OC(C)=O)C[C@H](OC(=O)CCC)[C@@]1(O)[C@H]2OC(=O)[C@@]1(C)O [TG, thapsigargin]
effect on DRiP-GFP expression [1]: increased in both variants
DRiP protein expression [2]: goes up
insulin RNA expression ([2]; with or without IRE1 inhibition): goes down
expression of DRiP polypeptide [3]: increased

Molecule: MLYQHLLPL [INS-DRiP1-9]
binding to HLA-A2 (HLA-A2): high affinity
binding affinity to HLA-DQ8cis (HLA-DQ8cis [4]): strong binding affinity
binding affinity to HLA-DQ2trans (HLA-DQ2trans [5]): not
binding affinity to HLA-DQ8trans (HLA-DQ8trans [6]): strong binding affinity

Molecule: tunicamycin [TM]
expression of DRiP polypeptide [3]: increased by TG but not TM

binding result (HLA-DQ2trans [7]): no binding
binding result (HLA-DQ8trans [8]): binds
binding result (HLA-DQ2cis): no binding
binding result (HLA-DQ8cis [9]): binds
B1: INS-DRiP1-9 epitope MLYQHLLPL (peptide)
peptide: MLYQHLLPL
notes: Synthetic counterpart of the N-terminal 9-mer of INS-DRiP; also called 9-mer peptide; INS-DRiP peptide fragment
